# Laboratory results: PMC11219871, “Epigenetic-based differentiation therapy for Acute Myeloid Leukemia” (Nature Communications, 2024)
# Values joined by “and” are separate entries in the source; they are usually repeats but may differ in a detail not shown here. Equal entries are not always repeated.
# Assays:
# HDAC7 = biological target: T1, HDAC7 (Homo sapiens, UniProt Q8WUI4); test: HDAC assay (Eurofins); format: biochemical
# T1 construct: purchased Eurofins (contracted assay service)
# T1 sequence (Q8WUI4 1-952): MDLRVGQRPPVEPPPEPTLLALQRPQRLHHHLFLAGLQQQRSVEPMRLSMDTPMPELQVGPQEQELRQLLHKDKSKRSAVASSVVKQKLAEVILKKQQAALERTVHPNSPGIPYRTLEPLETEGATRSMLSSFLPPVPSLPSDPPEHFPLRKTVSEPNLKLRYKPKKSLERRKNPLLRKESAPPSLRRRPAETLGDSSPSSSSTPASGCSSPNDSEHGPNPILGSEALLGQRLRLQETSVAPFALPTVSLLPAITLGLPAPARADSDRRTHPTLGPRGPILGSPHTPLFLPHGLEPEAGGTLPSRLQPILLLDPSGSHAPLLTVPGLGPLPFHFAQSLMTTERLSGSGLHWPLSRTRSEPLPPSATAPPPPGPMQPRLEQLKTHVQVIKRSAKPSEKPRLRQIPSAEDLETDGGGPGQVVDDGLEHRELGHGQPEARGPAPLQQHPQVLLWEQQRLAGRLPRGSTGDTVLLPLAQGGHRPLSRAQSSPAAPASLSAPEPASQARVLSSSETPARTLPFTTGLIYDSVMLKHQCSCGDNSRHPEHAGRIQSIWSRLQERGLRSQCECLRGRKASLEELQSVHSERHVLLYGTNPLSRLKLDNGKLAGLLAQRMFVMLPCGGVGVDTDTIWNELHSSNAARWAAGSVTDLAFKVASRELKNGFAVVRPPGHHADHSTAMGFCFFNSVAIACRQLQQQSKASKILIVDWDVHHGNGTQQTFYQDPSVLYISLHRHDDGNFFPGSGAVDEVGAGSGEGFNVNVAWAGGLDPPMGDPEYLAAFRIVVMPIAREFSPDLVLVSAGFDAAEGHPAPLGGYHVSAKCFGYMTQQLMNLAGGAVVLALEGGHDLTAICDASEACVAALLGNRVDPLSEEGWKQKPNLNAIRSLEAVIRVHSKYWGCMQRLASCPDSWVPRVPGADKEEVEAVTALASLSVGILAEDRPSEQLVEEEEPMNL
# Rag2-/-γc-/- mice = test: Toxicity assay: hematological and liver parameters, liver histology; format: in vivo, mouse; details: for ALT (Counts (U/L)) / AST (Counts (U/L)) / Bilirubin (Counts (mg/dl)) / HDL (Counts (mmol/l)) / LCLC3 (Counts (mmol/l)) / UREA (Counts (mg/dl)) / Hematocrit (Counts (%)) / Hemoglobin (Counts (g/dl)) / PLT (Counts (K/O)) / RBC (Counts (K/O)) / WBC (Counts (K/O)): healthy Rag2-/-γc-/- mice, individual mice, 10 mg/kg; for ALT (Counts (U/L)) / AST (Counts (U/L)) / Bilirubin (Counts (mg/dl)) / HDL (Counts (mmol/l)) / LCLC3 (Counts (mmol/l)) / UREA (Counts (mg/dl)): 10 mg/kg i.p. daily for 3 weeks then 7-day washout; for Hematocrit (Counts (%)) / Hemoglobin (Counts (g/dl)) / PLT (Counts (K/O)) / RBC (Counts (K/O)) / WBC (Counts (K/O)): 10 mg/kg i.p. daily for 3 weeks
# Method: After treating Rag2^−/−γc^−/− mice with i.p. […] Hematological and liver parameters were measured.
# Hematological parameters, including white blood cells, red blood cells, platelet count, hemoglobin and hematocrit, were measured on a Hemavet Hematology Analyzer (Drew Scientific). Liver enzymes (albumin, alkaline phosphatase, aspartate transaminase, alanine transaminase), cholesterol, bilirubin, urea and bile acid levels were analyzed from mice serum using a C311 Cobas Analyzer (Roche Diagnostics).
# Mice livers were fixed in paraformaldehyde at 4% for 6–8 h, washed twice with saline solution and stored in 70% ethanol. Samples were included in paraffin, and 3-µm serial sections were cut, deparaffinated, and stained with hematoxylin–eosin.
# [1] = tested on: ML-2 xenograft in BALB/cA Rag2-/-γc-/- mice; test: Subcutaneous xenograft model (tumor volume, CD11b q-PCR, H3Ac, body weight); format: in vivo, mouse; details: for Tumor volume: ML-2 subcutaneous xenograft, individual mice (Fig 3B), in mm³; for body weight of mice: subcutaneous ML-2 AML mouse model, individual mice
# Method: The subcutaneous xenograft models of ML-2 and MV4-11 derived cells, 5 × 10^6 and 10 × 10^6 cells, respectively, diluted in 100 µL of saline solution were subcutaneously inoculated in the back left flank of female BALB/cA Rag2^−/−γc^−/− mice. When tumors became palpable, the mice were randomized into three groups: vehicle, CM-444 and CM-1758, (eight animals/group). Treatment with 10 mg/kg of CM-444 or CM-1758 i.p. was started 4 days after injection when all mice presented subcutaneous tumors and was administered for 5 consecutive days followed by 2 resting days over 3 weeks for the ML-2 model or daily for 2 weeks for the MV4-11 model. The control group received only 80% saline solution, 10% DMSO […] 10% Tween 20 (diluents of CM-444 and CM-1758). Tumor size was analyzed every 2–3 days using the following method: […], where D and d corresponded to the longest and shortest diameter, respectively. The maximal tumor size/burden permitted by the Animal Care and Ethics Committee of the University of Navarra is 2000 mm^3. This maximal tumor size/burden was not exceeded in any case. ML-2 and MV4-11 tumors were explanted for differentiation and global histone acetylation analysis. Histones were extracted, and a western blot of H3Ac was performed as described above. For the differentiation study, RNA was extracted, and q-PCR of CD11b was performed as described above (CD11b sequence primer can be found in Supplementary Table 10).
compound,measurement,setting,value
"COc1cc2nc(-c3cc(C)oc3C)cc(NCC3CCN(c4ncc(C(=O)NO)cn4)CC3)c2cc1OC [CM-1758, 2-[4-[[[2-(2,5-dimethyl-3-furyl)-6,7-dimethoxy-4-quinolyl]amino]methyl] -1-piperidyl]pyrimidine-5-carbohydroxamic acid]",IC50,HDAC7,120 nM
same,inhibition at 10 µM,HDAC7; 10 µM,89%
same,tolerability,"Rag2-/-γc-/- mice; 10 mg/kg i.p. daily over 3 weeks, 1-week washout, Rag2-/-γc-/- mice",well tolerated
same,ALT (Counts (U/L)),Rag2-/-γc-/- mice; Week 3,17 U/L and 4.5 U/L and 5.5 U/L and 9 U/L
same,AST (Counts (U/L)),Rag2-/-γc-/- mice; Week 3,148.5 U/L and 43 U/L and 38.5 U/L and 74 U/L
same,Bilirubin (Counts (mg/dl)),Rag2-/-γc-/- mice; Week 3,0 mg/dl (2×) and 0.05 mg/dl (2×)
same,HDL (Counts (mmol/l)),Rag2-/-γc-/- mice; Week 3,3.2 mmol/L and 2.05 mmol/L and 0.6 mmol/L and 2.55 mmol/L
same,LCLC3 (Counts (mmol/l)),Rag2-/-γc-/- mice; Week 3,0.2 mmol/l (2×) and 0.1 mmol/l (2×)
same,UREA (Counts (mg/dl)),Rag2-/-γc-/- mice; Week 3,20.7 mg/dL and 26.4 mg/dL and 33.1 mg/dL and 24.1 mg/dL
same,ALT (Counts (U/L)),Rag2-/-γc-/- mice; Week 4,14.1 U/L and 27 U/L and 21.9 U/L and 7.5 U/L
same,AST (Counts (U/L)),Rag2-/-γc-/- mice; Week 4,46.8 U/L and 244.8 U/L and 155.7 U/L and 62.1 U/L
same,Bilirubin (Counts (mg/dl)),Rag2-/-γc-/- mice; Week 4,0 mg/dL and 0.06 mg/dL and 0.12 mg/dL and 0.03 mg/dL
same,HDL (Counts (mmol/l)),Rag2-/-γc-/- mice; Week 4,2.61 mmol/L and 2.43 mmol/L and 2.31 mmol/L and 2.37 mmol/L
same,LCLC3 (Counts (mmol/l)),Rag2-/-γc-/- mice; Week 4,0.21 mmol/l (3×) and 0.27 mmol/l
same,UREA (Counts (mg/dl)),Rag2-/-γc-/- mice; Week 4,26.61 mg/dl and 26.58 mg/dl (2×) and 31.89 mg/dl
same,Hematocrit (Counts (%)),Rag2-/-γc-/- mice; 7d Washout,51% and 54.2% and 45.9% and 52.8%
same,Hemoglobin (Counts (g/dl)),Rag2-/-γc-/- mice; 7d Washout,17.7 g/dL and 17.6 g/dL and 16.1 g/dL and 17.4 g/dL
same,PLT (Counts (K/O)),Rag2-/-γc-/- mice; 7d Washout,1572 K/O and 1571 K/O and 1050 K/O and 1405 K/O
same,RBC (Counts (K/O)),Rag2-/-γc-/- mice; 7d Washout,9.8 K/O and 10.2 K/O and 8.86 K/O and 10.25 K/O
same,WBC (Counts (K/O)),Rag2-/-γc-/- mice; 7d Washout,1.4 K/O and 1.52 K/O and 3.74 K/O and 2.44 K/O
same,Hematocrit (Counts (%)),Rag2-/-γc-/- mice; Week 1,48.1% and 47% and 47.7% and 46.6%
same,Hemoglobin (Counts (g/dl)),Rag2-/-γc-/- mice; Week 1,17.8 g/dL and 17.5 g/dL and 18 g/dL and 17.7 g/dL
same,PLT (Counts (K/O)),Rag2-/-γc-/- mice; Week 1,866 K/O and 806 K/O and 880 K/O and 983 K/O
same,RBC (Counts (K/O)),Rag2-/-γc-/- mice; Week 1,9.36 K/O and 9.79 K/O and 10.18 K/O (2×)
same,WBC (Counts (K/O)),Rag2-/-γc-/- mice; Week 1,1.68 K/O and 1.52 K/O and 1.6 K/O and 1.16 K/O
same,Hematocrit (Counts (%)),Rag2-/-γc-/- mice; Week 2,51.3% and 48.5% and 45.7% and 50.4%
same,Hemoglobin (Counts (g/dl)),Rag2-/-γc-/- mice; Week 2,18.2 g/dL and 18 g/dL and 17.2 g/dL and 17.7 g/dL
same,PLT (Counts (K/O)),Rag2-/-γc-/- mice; Week 2,1496 K/O and 1628 K/O and 1531 K/O and 1908 K/O
same,RBC (Counts (K/O)),Rag2-/-γc-/- mice; Week 2,10.07 K/O and 9.97 K/O and 9.38 K/O and 10.01 K/O
same,WBC (Counts (K/O)),Rag2-/-γc-/- mice; Week 2,10.02 K/O and 4.3 K/O and 5.26 K/O and 5.18 K/O
same,Hematocrit (Counts (%)),Rag2-/-γc-/- mice; Week 3,47.2% and 36.5% and 46.9% and 44.2%
same,Hemoglobin (Counts (g/dl)),Rag2-/-γc-/- mice; Week 3,17.4 g/dL and 13.4 g/dL and 17.3 g/dL and 16.8 g/dL
same,PLT (Counts (K/O)),Rag2-/-γc-/- mice; Week 3,870 K/O and 786 K/O and 1040 K/O and 1436 K/O
same,RBC (Counts (K/O)),Rag2-/-γc-/- mice; Week 3,9.53 K/O and 7.63 K/O and 9.68 K/O and 9.71 K/O
same,WBC (Counts (K/O)),Rag2-/-γc-/- mice; Week 3,3.3 K/O and 2.28 K/O and 4.16 K/O and 1.16 K/O
same,CD11b expression in explanted tumors,"[1]; ML-2 s.c., 10 mg/kg i.p.",significant increase in CD11b expression
same,H3Ac levels in tumors,"[1]; ML-2 s.c., 10 mg/kg i.p.",increase in H3Ac levels
same,tumor growth,"[1]; ML-2 s.c., 10 mg/kg i.p., 5 days on/2 off, 3 weeks",inhibited tumor growth significantly
same,Tumor volume,[1]; day 0,0
same,Tumor volume,[1]; day 8,47.3386 and 22.9378 and 56.1402 and 38.666 and 38.4941 and 0 and 12.669 and 19.4742
same,Tumor volume,[1]; day 11,71.6377 and 35.2331 and 55.0976 and 24.3685 and 43.9734 and 8.639 and 15.4625 and 6.7915
same,Tumor volume,[1]; day 13,158.593 and 184.271 and 192.133 and 111.517 and 131.043 and 16.1706 and 35.0775 and 32.6327
same,Tumor volume,[1]; day 15,338.357 and 436.616 and 344.697 and 149.062 and 276.144 and 73.6819 and 103.063 and 52.9756
same,Tumor volume,[1]; day 18,450.141 and 971.066 and 667.169 and 309.135 and 557.655 and 200.834 and 266.198 and 84.0917
same,Tumor volume,[1]; day 20,750.162 and 778.307 and 425.752 and 619.516 and 424.823 and 364.169 and 387.08 and 367.037
same,Relative H3Ac/H3 total levels,"[1]; after in vivo treatment, subcutaneous ML-2 mouse model, western blot, individual tumors",1.2836 and 1.288 and 1.719 and 8.364 and 1.323 and 1.1332
same,body weight of mice,"[1]; day 4, in g (unit assumed)",23.8 and 22.2 and 25.1 and 23.3 and 24.6 and 21 and 23.7 and 24.3
same,body weight of mice,"[1]; day 6, in g (unit assumed)",23 and 20.6 and 24.5 and 22.4 and 23.6 and 21.2 and 22.8 and 24.2
same,body weight of mice,[1]; day 8,22.9 (2×) and 20.3 and 23.8 and 22.4 and 21.2 and 22 and 23.5
same,body weight of mice,"[1]; day 11, in g (unit assumed)",23 and 22.4 and 24.2 and 23.7 and 23.9 and 21.1 and 23.2 and 25.2
same,body weight of mice,[1]; day 13,23 (2×) and 21.6 and 24.6 and 24 and 23.4 and 22 and 25.4
same,body weight of mice,[1]; day 15,22.8 and 22 and 24.5 and 23.6 (2×) and 20.9 and 22.4 and 24.7
same,body weight of mice,"[1]; day 18, in g (unit assumed)",22.9 and 21.9 and 23.9 and 24 and 22.8 and 20.8 and 21.6 and 24.1
same,body weight of mice,[1]; day 20,22.1 and 20.8 (2×) and 23.3 (2×) and 19.4 and 19.9 and 23.7
same,CD11b expression from tumors measured by q-PCR,"[1]; tumors of the subcutaneous ML-2 model, individual tumors (Fig 3C)",1.158 log10 (2-ΔΔCt) and 2.588 log10 (2-ΔΔCt) and 4.58 log10 (2-ΔΔCt) and 3.25 log10 (2-ΔΔCt) and 2.2558 log10 (2-ΔΔCt)
